How the values were obtained:
[1] = system: NC(=O)c1ccc[n+]([C@@H]2O[C@H](COP(=O)(O)OP(=O)(O)OC[C@H]3O[C@@H](n4cnc5c(N)ncnc54)[C@H](O)[C@@H]3O)[C@@H](O)[C@H]2O)c1; assay: purified protein, by the assay type; conditions: other: in the presence of 10 nM ACT, 40 mM ethanol, pH 8.0, 25.0 °C
BmMDH2 [2] = target: T1, BmMDH2 (Bacillus methanolicus, UniProt I3E949); assay: Inhibition kinetics of ADPR on formaldehyde reduction (NADH fluorescence); assay type: biochemical, Bacillus methanolicus MGA3; conditions: read-out: KM of BmMDH2, without ADPR, 0 to 150 μM NADH
Method: Data are shown as means ± SDs (n = 3). Apparent KM values for NAD^+ were determined in the presence of 10 nM ACT (Fig. S6). […] Data are presented as means ± SDs (n = 3). […] The row labels are given as the substance labels. / Panel D: no substance label is printed with the KD and thermodynamic values.

BmMDH2 [3] = target: T1, BmMDH2; assay: BmMDH2 activation by ACT, NADH formation monitored at 340 nm; assay type: biochemical; conditions: final NAD+ raised by 2.9 mM after […]; 42 μM/min before; 50 nM ACT
Method: Figure 1 ACT-catalyzed conversion of NAD^+ into a compound that activates BmMDH2.A, effect of ACT concentration on BmMDH2 activation. The formation of NADH was monitored at 340 nm, with 100 nM BmMDH2 in glycine-NaOH buffer (pH 9.5) containing 0 to 125 nM ACT, 3 mM NAD^+, 20 mM ethanol, 5 mM MgCl2 and 0.5 mM MnCl2. Data for the initial 10 min are highlighted in the right panel. Data were from a single experiment. B, effects of the following treatments on BmMDH2 activation: preincubated ACT & NAD^+ (red), preincubated ACT & BmMDH2 (blue), ultrafiltrate of preincubated ACT & NAD^+ (green), and ultrafiltrate of ACT (purple) or NAD^+ (cyan) solutions. Preincubations were performed in glycine-NaOH buffer (pH 9.5) with 5 mM MgCl2 and 0.5 mM MnCl2 at 25 °C for 30 min. Ethanol, BmMDH2, or NAD^+ was subsequently added to achieve final concentrations of 10 nM ACT, 20 mM ethanol, 3 mM NAD^+, and 200 nM BmMDH2. For ultrafiltration, preincubated samples were filtered (10 kDa cutoff, Millipore), and the flowthrough was used for activation assays. Data represent means ± SD (n = 3). C, effect of NAD^+ concentration on BmMDH2 activation. Activity was measured using 100 nM BmMDH2 in glycine-NaOH buffer (pH 9.5) with 50 nM ACT, 0 to 20 mM NAD^+, 5 mM MgCl2, and 0.5 mM MnCl2. Data were from a single experiment. D, time-course of BmMDH2 activation. Reaction were performed in 200 μl glycine-NaOH buffer (100 mM, pH 9.5) with 5 mM MgCl2, 0.5 mM MnCl2, 0.25 mM NAD^+, 0.1 μM BmMDH2, 20 mM ethanol, and 50 nM ACT. Fresh NAD^+ (4 μl, 150 mM) was added twice during the reaction. Data were from a single experiment. E, catalytic rates of BmMDH2 were calculated from the slopes of the data in panel D. Additional replicates of the experiments shown in panels A, C, and D are provided in Fig. S4. […]
The catalytic processes of MDHs were monitored by measuring NADH absorbance at 340 nm using a Tecan SPARK UV-Vis plate reader (Tecan Austria GmbH) at 25 °C. […]

[4] = Hydrolysis of NAD+ in glycine-NaOH buffer pH 9.5 at 25 °C (HPLC); assay type: physicochemical
Method: NAD^+ (3 mM) was incubated with (black) or without (blue) 10 nM ACT in glycine-NaOH buffer (pH 9.5, 5 mM MgCl2) at 25 °C for 60 min. Unincubated NAD^+ (red) served as a control. Compounds were identified via LC-MS. […] Data are presented as means ± SDs (n = 3). C, degradation of ACT-treated NAD^+ in glycine-NaOH buffer (pH 9.5) at 25 °C. ACT was removed by ultrafiltration before analysis. D, ADPR content in NAD^+ from different suppliers. […] E, schematic of the reactions during ACT incubation with NAD^+.
Fig. S5 The hydrolysis rate of NAD^+ at 25 °C. NAD^+ was dissolved in glycine-NaOH buffer (pH 9.5, 100 mM) at a concentration of 3 mM and incubated at 25 °C. Samples were withdrawn at various time intervals and analyzed by HPLC. The residual NAD^+ was quantified according to the standard curves of NAD^+.

BmMDH2 [5] = target: T1, BmMDH2; assay: Effects of NAM, AMP and ADPR (0.3 mM each) on BmMDH2 activity; assay type: biochemical, Bacillus methanolicus MGA3; conditions: 3 mM NAD+, 40 mM ethanol
[6] = target: NAD-dependent methanol dehydrogenase 2 from Bacillus methanolicus MGA3 (BmMDH2) (Bacillus methanolicus MGA3); assay: crystal structure; BmMDH2 apo (2.8 Å), with ADPR (2.6 Å) and with NAD+ (2.6 Å); sitting-drop vapor diffusion at 18 °C, 30 mg/ml protein, Bis-Tris propane pH 6.0-7.0, PEG 3350
[7] = target: activator protein ACT from Bacillus methanolicus MGA3 (Nudix hydrolase, ADPRase) (Bacillus methanolicus MGA3) (UniProt Q8KP10); assay: crystal structure; apo-ACT in two conformations of loop 132-146 (2.0 and 2.4 Å); 90 mg/ml protein in 20 mM Tris-HCl pH 7.5, 150 mM NaCl; reservoir MES pH 5.2 with PEG 400, or MMT pH 5.0 with PEG 1500
[8] = substrate: NC(=O)c1ccc[n+]([C@@H]2O[C@H](COP(=O)(O)OP(=O)(O)OC[C@H]3O[C@@H](n4cnc5c(N)ncnc54)[C@H](O)[C@@H]3O)[C@@H](O)[C@H]2O)c1; assay: Kinetic assay of MDHs, ethanol dehydrogenation, NAD+ varied; assay type: biochemical, Bacillus methanolicus MGA3; conditions: other: in the presence of 10 nM ACT, 40 mM ethanol, pH 8.0, 25.0 °C
[9] = substrate: NC(=O)c1ccc[n+]([C@@H]2O[C@H](COP(=O)(O)OP(=O)(O)OC[C@H]3O[C@@H](n4cnc5c(N)ncnc54)[C@H](O)[C@@H]3O)[C@@H](O)[C@H]2O)c1; assay: as above; assay type: biochemical, Bacillus methanolicus MGA3; conditions: other: in the presence of 10 nM ACT, 40 mM ethanol, pH 8.0, 25.0 °C; remark: listed apart in the source
Method: NAD^+ and NADH used for the kinetic assays were pretreated with ACT as described above. The reaction mixtures for the ethanol dehydrogenation contained 40 mM ethanol, adequate MDHs, and various concentrations of NAD^+ (ranging from 0 to 48 mM). Enzymatic catalytic rates were determined by monitoring the increase in NADH absorbance at 340 nm. To determine the kinetics of BmMDH2 for the reverse direction (formaldehyde reduction), the reaction mixtures contained 1 mM DTT, 100 nM BmMDH2, 20 mM formaldehyde, 0.5 mM MnCl2, and 0 to 150 μM of NADH. The catalytic rates of formaldehyde reduction were measured by monitoring the decrease of NADH fluorescence, using excitation and emission wavelengths of 340 nm and 535 nm, respectively.
The kinetic assays were conducted in 200 μL Tris-HCl buffer (100 mM, pH 8.0) at 25 °C. The reaction mixture contained 40 mM ethanol, 0.5 mM MnCl2, 10 nM ACT, 5 mM MgCl2, adequate MDHs (BmMDH1: 500 nM; BmMDH2: 100 nM; BmMDH2S101G: 100 nM; CnMDH2 CT4: 100 nM), and 0 to 48 mM of NAD^+. […] Data are means ± SDs of three measurements.

“BmMDH2S101G (Bacillus methanolicus MGA3; S101G)” gave a Km [1] of 6.2 ± 0.8 mM.

`NC(=O)C1=CN([C@@H]2O[C@H](COP(=O)(O)OP(=O)(O)OC[C@H]3O[C@@H](n4cnc5c(N)ncnc54)[C@H](O)[C@@H]3O)[C@@H](O)[C@H]2O)C=CC1` [NADH] showed a Km (BmMDH2 [2]) of 6.7 ± 1.7 µM.

With `NC(=O)c1ccc[n+]([C@@H]2O[C@H](COP(=O)(O)OP(=O)(O)OC[C@H]3O[C@@H](n4cnc5c(N)ncnc54)[C@H](O)[C@@H]3O)[C@@H](O)[C@H]2O)c1` [NAD^+] the “catalytic rate of activated BmMDH2 after additional NAD+ dose” value (BmMDH2 [3]) was 4.8 µM/min, the half-life at 3 mM ([4]; glycine-NaOH buffer, glycine-NaOH pH 9.5, 25 °C, read-out: t1/2 of NAD+ hydrolysis (converted)) was 2.67 days and the “rate constant for NAD+ hydrolysis” value ([4]; glycine-NaOH pH 9.5, 25 °C) was 0.011 h⁻¹. The “increase of ADPR and NAM on incubation of NAD+” value ([4]; glycine-NaOH pH 9.5, 60 min) was “about 40%”.

With `NC(=O)c1cccnc1` [NAM, nicotinamide] the “effect on BmMDH2 activity (in words)” value (BmMDH2 [5]) was “Neither AMP nor NAM significantly influenced activation”.

With “NAD-dependent methanol dehydrogenase 2 from Bacillus methanolicus MGA3 (BmMDH2) (enzyme)” the stoichiometry N [6] was 10.

Molecule “activator protein ACT from Bacillus methanolicus MGA3 (Nudix hydrolase, ADPRase) (from UniProt Q8KP10 1-183) (enzyme)” has a stoichiometry N [7] of 2.

For `Nc1ncnc2c1ncn2[C@@H]1O[C@H](COP(=O)(O)O)[C@@H](O)[C@H]1O` [AMP], the “effect on BmMDH2 activity (in words)” value (BmMDH2 [5]) was “Neither AMP nor NAM significantly influenced activation”.

B1: BmMDH2 (Bacillus methanolicus MGA3) (protein)
chain: MTNTQSAFFMPSVNLFGAGSVNEVGTRLADLGVKKALLVTDAGLHGLGLSEKISSIIRAAGVEVSIFPKAEPNPTDKNVAEGLEAYNAENCDSIVTLGGGSSHDAGKAIALVAANGGKIHDYEGVDVSKEPMVPLIAINTTAGTGSELTKFTIITDTERKVKMAIVDKHVTPTLSINDPELMVGMPPSLTAATGLDALTHAIEAYVSTGATPITDALAIQAIKIISKYLPRAVANGKDIEAREQMAFAQSLAGMAFNNAGLGYVHAIAHQLGGFYNFPHGVCNAVLLPYVCRFNLISKVERYAEIAAFLGENVDGLSTYDAAEKAIKAIERMAKDLNIPKGFKELGAKEEDIETLAKNAMKDACALTNPRKPKLEEVIQIIKNAM
Molecule B1 has a Km [8] of 0.72 ± 0.06 mM.

B2: BmMDH1 (Bacillus methanolicus MGA3) (protein)
chain: MTTNFFIPPASVIGRGAVKEVGTRLKQIGAKKALIVTDAFLHSTGLSEEVAKNIREAGVDVAIFPKAQPDPADTQVHEGVDVFKQENCDSLVSIGGGSSHDTAKAIGLVAANGGRINDYQGVNSVEKPVVPVVAITTTAGTGSETTSLAVITDSARKVKMPVIDEKITPTVAIVDPELMVKKPAGLTIATGMDALSHAIEAYVAKGATPVTDAFAIQAMKLINEYLPKAVANGEDIEAREKMAYAQYMAGVAFNNGGLGLVHSISHQVGGVYKLQHGICNSVNMPHVCAFNLIAKTERFAHIAELLGENVAGLSTAAAAERAIVALERINKSFGIPSGYAEMGVKEEDIELLAKNAYEDVCTQSNPRVPTVQDIAQIIKNAM
For B2, the Km [9] was 2.1 ± 1.0 mM.

Source: PMC12926040, “ADP-ribose is a competitive inhibitor of methanol dehydrogenases from Bacillus methanolicus” (The Journal of Biological Chemistry, 2025)
